Tests used:
[1] = system: rat-derived retinal ganglion cells (RGC); test: Neurite outgrowth inducing effect in culture system of rat-derived retinal ganglion cells; format: cell-based, Wistar rats; settings: all-trans form content 3 μM; 48 hours; FIG. 2, FIG. 3; n=4
Excerpt: The progress of visual impairment in glaucoma is associated with retinal ganglion cell (RGC) death due to blood flow failure occurring near the optic nerve (Folia Pharmacol. Jpn. 128, 255-258 (2006)). Accordingly, a culture system of rat-derived retinal neurons (Current protocols in Neuroscience 3.22.1-3.22.10, October 2010), which is widely used as one of study tools for optic nerve diseases such as a glaucoma, was used to examine the neurite outgrowth inducing effect of GGA.
Four-day-old Wistar rats (Japan SLC, Inc.) were euthanized by cervical dislocation and the eyeballs were harvested. The harvested eyeballs were immersed in 70% ethanol for 10 seconds and transferred to a Hanks' balanced salt solution containing 100 U/mL penicillin and 100 μg/mL streptomycin. Under a stereoscopic microscope, the corneas, irises, crystalline lenses, and vitreous bodies were removed using scissors for surgery and forceps, and the retinal tissue was harvested. The harvested retinal tissue was transferred to a centrifugation tube containing 5 mL of a basal medium for neuronal cells (Neurobasal, Invitrogen) containing 100 U/mL penicillin, 100 μg/mL streptomycin, a neural cell culture supplement (B27™-Supplement, Invitrogen), 1 μM L-cysteine (Kyowa Hakko Bio) and 15 U/mL papain (Sigma Aldrich) and incubated at 37° C. for 30 minutes. […]

[2] = system: rat models with glaucoma induced by NMDA; test: Protective effect for retinal ganglion cells against nerve damage by NMDA (thickness of inner plexiform layer); format: in vivo, Sprague-Dawley (SD) rats
Excerpt: In recent years the glutamate analogue NMDA (N-methyl-D-aspartate) has been widely reported to be one of causative agents of neurodegenerative diseases including Alzheimer's disease. In the ophthalmic field, NMDA is considered to be involved in optic nerve damage in glaucoma (Brain Research Bulletin, 81 (2010) 349-358). Accordingly, in this experiment rat models with glaucoma induced by NMDA were used to evaluate the neuroprotective effect of GGA.
To Sprague-Dawley (SD) rats, the all-trans form, the 5Z-mono-cis form and teprenone were separately pre-administered by oral administration (Test Example 1), intravitreal administration (Test Example 2) or ocular instillation administration (Test Example 3) and 5 μL of NMDA was administered into the vitreous body to induce nerve damage. For Test Example 2, a marketed therapeutic eye drop for glaucoma, AIPHAGAN (trade name), was intravitreally administered as a positive control once a day for five days. For each of Test Examples, a base not containing GGA or AIPHAGAN was administered as a control in the same manner as described above.
The dosage and regimen of Test Examples 1 to 3 are shown in Table 1 and the constitution of the base used in each tests are shown in Table 2.
Three days after administration of NMDA, the eyeballs were harvested, fixed with half Karnovsky's fixative for 24 hours, embedded in paraffin, thin sectioned and stained with hematoxylin-eosin (HE) to prepare histopathological sections. The histological sections were observed under an optical microscope and the thickness (μm) of the inner plexiform layer (IPL) of the retina was measured. From the thickness of the inner plexiform layer (IPL) of the retina, the neuroprotective effects of the test preparations were evaluated.

CC(=O)CC/C=C(\C)CC/C=C(\C)CC/C=C(\C)CCC=C(C)C [all-trans form, (5E,9E,13E)-6,10,14,18-tetramethyl-5,9,13,17-nonadecatetrae n-2-one]
Neurite inducing effect (mean length of neurites of RGC) compared with GGA 6:4 and base [1]: significant neurite inducing effect | Neuroprotective effect against nerve damage by NMDA compared with the base (IPL thickness) ([2]; Test Example 1: oral, 800 mg/kg, 2 days, once per day, NMDA 4 mM, FIG. 6): significant neuroprotective effects | Neuroprotective effect against nerve damage by NMDA compared with the base (IPL thickness) ([2]; Test Example 2: intravitreal, 0.05% w/v, 5 days, once per day, NMDA 40 mM, FIG. 7): significant neuroprotective effects | Neuroprotective effect compared with AIPHAGAN Ophthalmic Solution 0.1% ([2]; Test Example 2: intravitreal, 0.05% w/v, 5 days, NMDA 40 mM, FIG. 7): significantly superior neuroprotective effect | Neuroprotective effect against nerve damage by NMDA compared with the base (IPL thickness) ([2]; Test Example 3: ocular instillation, 1% w/v, 5 days, 5 times per day, NMDA 4 mM, FIG. 9): significant neuroprotective effect

Source: patent US20140350119A1, “OPHTHALMIC COMPOSITION COMPRISING GERANYLGERANYLACETONE” (ROHTO PHARMACEUTICAL CO., LTD., priority 2012, published 2014)
